Test results taken from PubChem BioAssay AID248 (DTP/NCI, 2004).
Toxic doses and inconclusive results are not listed. Cut-off read from the data, not from the text of the source: active = T/C of 150% or more; inactive = T/C below 125%.

Tested on: L1210 leukemia ip in BDF1 mice, survival T/C
Assay: NCI In Vivo Anticancer Drug Screen. Data for tumor model L1210 Leukemia (intraperitoneal) in B6D2F1 (BDF1) mice
Details: endpoint: mean survival time, higher = longer survival
How it was run: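 Survival endpoint. Drug-treated group vs vehicle group, expressed as T divided by C. Tumor passaged by transplantation.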

[1] = dose: 100.0 mg/kg/injection, schedule: Q04DX002 (ip), vehicle: Klucel (hydroxypropylcellulose) (HPC)
[2] = dose: 200.0 mg/kg/injection, schedule: Q04DX002 (ip), vehicle: Klucel (hydroxypropylcellulose) (HPC)
[3] = dose: 400.0 mg/kg/injection, schedule: Q04DX002 (ip), vehicle: Klucel (hydroxypropylcellulose) (HPC)
[4] = dose: 100.0 mg/kg/injection, schedule: Q01DX009 (ip), vehicle: Klucel (hydroxypropylcellulose) (HPC)
[5] = dose: 200.0 mg/kg/injection, schedule: Q01DX009 (ip), vehicle: Klucel (hydroxypropylcellulose) (HPC)
[6] = dose: 400.0 mg/kg/injection, schedule: Q01DX009 (ip), vehicle: Klucel (hydroxypropylcellulose) (HPC)
[7] = dose: 100.0 mg/kg/injection, schedule: Q04DX003 (ip), vehicle: saline with Tween-80
[8] = dose: 200.0 mg/kg/injection, schedule: Q04DX003 (ip), vehicle: saline with Tween-80
[9] = dose: 400.0 mg/kg/injection, schedule: Q04DX003 (ip), vehicle: saline with Tween-80
[10] = dose: 100.0 mg/kg/injection, schedule: Q04DX003 (ip), vehicle: Klucel (hydroxypropylcellulose) (HPC)
[11] = dose: 200.0 mg/kg/injection, schedule: Q04DX003 (ip), vehicle: Klucel (hydroxypropylcellulose) (HPC)
[12] = dose: 400.0 mg/kg/injection, schedule: Q04DX003 (ip), vehicle: Klucel (hydroxypropylcellulose) (HPC)
[13] = dose: 100.0 mg/kg/injection, schedule: Q01DX001 (ip), vehicle: carboxymethylcellulose (CMC)
[14] = dose: 200.0 mg/kg/injection, schedule: Q01DX001 (ip), vehicle: carboxymethylcellulose (CMC)
[15] = dose: 400.0 mg/kg/injection, schedule: Q01DX001 (ip), vehicle: carboxymethylcellulose (CMC)

Measured: T/C

O=C1OC(/C=C\c2ccccc2)=NC/1=C\c1cc(Cl)cc(Cl)c1O
inactive: [1] 108 % of control | [2] 112 % of control | [3] 108 % of control

C[N+]1(C)C2CCCC1CC(=O)C2
inactive: dose: 150.0 mg/kg/injection, schedule: Q01DX001 (ip), vehicle: saline 107 % of control

COC(=O)CCCCCCCC(=O)O
inactive: [4] 94 % of control | [5] 98 % of control | [6] 102 % of control

Nc1ccccc1SCc1ccccc1
inactive: [7] 101 % of control | [8] 96 % of control | [9] 98 % of control

NC(C(=O)O)c1ccccc1 (centres undefined)
inactive: dose: 12.5 mg/kg/injection, schedule: Q04DX002 (ip), vehicle: Klucel (hydroxypropylcellulose) (HPC) 96 % of control | dose: 25.0 mg/kg/injection, schedule: Q04DX002 (ip), vehicle: Klucel (hydroxypropylcellulose) (HPC) 104 % of control | dose: 50.0 mg/kg/injection, schedule: Q04DX002 (ip), vehicle: Klucel (hydroxypropylcellulose) (HPC) 96 % of control

O=C1C(Cl)=C(Cl)C(Cl)(Cl)C1(Cl)Cl
inactive: dose: 12.5 mg/kg/injection, schedule: Q01DX009 (ip), vehicle: Klucel (hydroxypropylcellulose) (HPC) 98 % of control | dose: 12.5 mg/kg/injection, schedule: Q04DX003 (ip), vehicle: Klucel (hydroxypropylcellulose) (HPC) 98 % of control | dose: 25.0 mg/kg/injection, schedule: Q01DX009 (ip), vehicle: Klucel (hydroxypropylcellulose) (HPC) 101 % of control | dose: 25.0 mg/kg/injection, schedule: Q04DX003 (ip), vehicle: Klucel (hydroxypropylcellulose) (HPC) 96 % of control | dose: 50.0 mg/kg/injection, schedule: Q01DX009 (ip), vehicle: Klucel (hydroxypropylcellulose) (HPC) 94 % of control | dose: 50.0 mg/kg/injection, schedule: Q04DX003 (ip), vehicle: Klucel (hydroxypropylcellulose) (HPC) 100 % of control

CC1(C)C2CCC3C(C#N)C(CCC#N)C=CC3C21 (centres undefined)
inactive: dose: 100.0 mg/kg/injection, schedule: Q04DX003 (sc), vehicle: olive oil, sesame oil, peanut oil 98 % of control | dose: 200.0 mg/kg/injection, schedule: Q04DX003 (sc), vehicle: olive oil, sesame oil, peanut oil 97 % of control | dose: 400.0 mg/kg/injection, schedule: Q04DX003 (sc), vehicle: olive oil, sesame oil, peanut oil 101 % of control

O=C(O)C1C=CC(C(=O)O)c2ccccc21 (centres undefined)
inactive: [10] 102 % of control | [11] 96 % of control | [12] 98 % of control

COC1OC2COc3ccccc3OC2C(N)C1N(C)c1ccccc1 (centres undefined)
inactive: dose: 18.75 mg/kg/injection, schedule: Q01DX001 (ip), vehicle: saline with Tween-80 98 % of control | dose: 37.5 mg/kg/injection, schedule: Q01DX001 (ip), vehicle: saline with Tween-80 96 % of control | dose: 75.0 mg/kg/injection, schedule: Q01DX001 (ip), vehicle: saline with Tween-80 93 % of control

CCOC(=O)C(CC)C(=O)OCC
inactive: [7] 104 % of control | [8] 98 % of control | [9] 93 % of control

Cc1ccc(S(=O)(=O)OCCC2CCCCC2COS(=O)(=O)c2ccc(C)cc2)cc1 (centres undefined)
inactive: dose: 100.0 mg/kg/injection, schedule: Q01DX009 (ip), vehicle: saline 100 % of control | [10] 100 % of control | dose: 200.0 mg/kg/injection, schedule: Q01DX009 (ip), vehicle: saline 91 % of control | [11] 99 % of control | dose: 400.0 mg/kg/injection, schedule: Q01DX009 (ip), vehicle: saline 96 % of control | [12] 94 % of control

CC(=O)c1ccc(CC2CC3CCC2C3)cc1 (centres undefined)
inactive: dose: 100.0 mg/kg/injection, schedule: Q01DX001 (ip), vehicle: Klucel (hydroxypropylcellulose) (HPC) 112 % of control | [10] 94 % of control | dose: 200.0 mg/kg/injection, schedule: Q01DX001 (ip), vehicle: Klucel (hydroxypropylcellulose) (HPC) 96 % of control | [11] 89 % of control | dose: 400.0 mg/kg/injection, schedule: Q01DX001 (ip), vehicle: Klucel (hydroxypropylcellulose) (HPC) 89 % of control | [12] 98 % of control

O=C1c2ccccc2C(=O)C1(Br)C(Cl)c1ccccc1 (centres undefined)
inactive: [4] 95 % of control | [10] 96 % of control | [5] 101 % of control | [11] 103 % of control | [6] 97 % of control | [12] 97 % of control

CC(C)(C)SCCO
inactive: dose: 100.0 mg/kg/injection, schedule: Q04DX002 (ip), vehicle: saline 105 % of control | dose: 200.0 mg/kg/injection, schedule: Q04DX002 (ip), vehicle: saline 99 % of control | dose: 400.0 mg/kg/injection, schedule: Q04DX002 (ip), vehicle: saline 96 % of control

CCCCCCCCCCCCCCCCCOc1ccc(Sc2ccc([N+](=O)[O-])cc2)cc1
inactive: [11] 92 % of control

ClCC[n+]1csc2ccccc21
inactive: dose: 10.0 mg/kg/injection, schedule: Q01DX Z (ip), vehicle: saline 91 % of control | dose: 30.0 mg/kg/injection, schedule: Q01DX Z (ip), vehicle: saline 94 % of control | dose: 100.0 mg/kg/injection, schedule: Q01DX Z (ip), vehicle: saline 96 % of control | dose: 300.0 mg/kg/injection, schedule: Q01DX Z (ip), vehicle: saline 110 % of control

COc1ccc(OC)c(NC(=O)c2cccc([N+](=O)[O-])c2)c1
inactive: [13] 94 % of control | [14] 100 % of control | [15] 94 % of control

Nc1cc(Cl)c(S(=O)(=O)O)cc1Cl
inactive: dose: 50.0 mg/kg/injection, schedule: Q01DX009 (ip), vehicle: saline with Tween-80 90 % of control | dose: 100.0 mg/kg/injection, schedule: Q01DX001 (ip), vehicle: saline 95 % of control | dose: 100.0 mg/kg/injection, schedule: Q01DX009 (ip), vehicle: saline with Tween-80 107 % of control | [1] 100 % of control | dose: 200.0 mg/kg/injection, schedule: Q01DX001 (ip), vehicle: saline 86 % of control | dose: 200.0 mg/kg/injection, schedule: Q01DX009 (ip), vehicle: saline with Tween-80 97 % of control | [2] 91 % of control | [3] 88 % of control

CCOC(=O)c1nc2c(OC)nn(O)cc-2c1Br
inactive: dose: 25.0 mg/kg/injection, schedule: Q04DX002 (ip), vehicle: saline with Tween-80 92 % of control | dose: 50.0 mg/kg/injection, schedule: Q04DX002 (ip), vehicle: saline with Tween-80 89 % of control | dose: 100.0 mg/kg/injection, schedule: Q04DX002 (ip), vehicle: saline with Tween-80 96 % of control

O=C1c2ccccc2C(=O)N1CC(O)COc1ccc(Cl)cc1 (centres undefined)
inactive: [10] 92 % of control | [11] 92 % of control | [12] 91 % of control

NS(=O)(=O)c1ccc(NC(=O)Nc2ccc(Cl)cc2[N+](=O)[O-])cc1
inactive: [4] 94 % of control | [5] 91 % of control | [6] 86 % of control

CN(C)c1nc(N)nc2c1ncn2C1OC(CO)CC1O (centres undefined)
inactive: [13] 120 % of control | [14] 98 % of control | [15] 101 % of control

CC1=[N+](C)C(C)(C)CC(C)O1 (centres undefined)
inactive: dose: 6.25 mg/kg/injection, schedule: Q01DX009 (ip), vehicle: saline 105 % of control | dose: 6.25 mg/kg/injection, schedule: Q04DX003 (ip), vehicle: saline 94 % of control | dose: 12.5 mg/kg/injection, schedule: Q01DX009 (ip), vehicle: saline 96 % of control | dose: 12.5 mg/kg/injection, schedule: Q04DX003 (ip), vehicle: saline 105 % of control | dose: 25.0 mg/kg/injection, schedule: Q01DX009 (ip), vehicle: saline 105 % of control | dose: 25.0 mg/kg/injection, schedule: Q04DX003 (ip), vehicle: saline 96 % of control

CCCc1cc(=O)c2ccccc2n1COC(C)=O
inactive: dose: 50.0 mg/kg/injection, schedule: Q01DX001 (ip), vehicle: carboxymethylcellulose (CMC) 119 % of control | [13] 113 % of control | [14] 113 % of control
